The supplement of paper PMC11451515

Test system: NOMO1
Experiment: cell viability relative to DMSO control; higher = less cytotoxic
Settings: 48 h
How it was run: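 NOMO1, SEM and P12-Ichikawa leukemia cells spent at least four passages adapting to each medium before use. They were seeded at 500 cells/well (NOMO1, SEM) or 1000 cells/well (P12-Ichikawa) in 5 μl in 1536-well plates and pin-dosed with library compounds in DMSO at 11 threefold steps from 47 μM down to 0.79 nM. After 48 h at 37°C, CellTiter-Glo One luminescence was read. Viability is reported as a percentage of the DMSO wells on each plate, with cell-free wells as background.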

[1] = HPLM + 10% dialyzed FBS, 0.000781 µM
[2] = HPLM + 10% dialyzed FBS, 0.00234 µM
[3] = HPLM + 10% dialyzed FBS, 0.00702 µM
[4] = HPLM + 10% dialyzed FBS, 0.0211 µM
[5] = HPLM + 10% dialyzed FBS, 0.0632 µM
[6] = HPLM + 10% dialyzed FBS, 0.19 µM
[7] = HPLM + 10% dialyzed FBS, 0.569 µM
[8] = HPLM + 10% dialyzed FBS, 1.71 µM
[9] = HPLM + 10% dialyzed FBS, 5.12 µM
[10] = HPLM + 10% dialyzed FBS, 15.4 µM
[11] = HPLM + 10% dialyzed FBS, 46.1 µM
[12] = RPMI 5 mM glucose + 10% FBS, 0.000781 µM
[13] = RPMI 5 mM glucose + 10% FBS, 0.00234 µM
[14] = RPMI 5 mM glucose + 10% FBS, 0.00702 µM
[15] = RPMI 5 mM glucose + 10% FBS, 0.0211 µM
[16] = RPMI 5 mM glucose + 10% FBS, 0.0632 µM
[17] = RPMI 5 mM glucose + 10% FBS, 0.19 µM
[18] = RPMI 5 mM glucose + 10% FBS, 0.569 µM
[19] = RPMI 5 mM glucose + 10% FBS, 1.71 µM
[20] = RPMI 5 mM glucose + 10% FBS, 5.12 µM
[21] = RPMI 5 mM glucose + 10% FBS, 15.4 µM
[22] = RPMI 5 mM glucose + 10% FBS, 46.1 µM
[23] = RPMI 5 mM glucose + 10% dialyzed FBS, 0.000781 µM
[24] = RPMI 5 mM glucose + 10% dialyzed FBS, 0.00234 µM
[25] = RPMI 5 mM glucose + 10% dialyzed FBS, 0.00702 µM
[26] = RPMI 5 mM glucose + 10% dialyzed FBS, 0.0211 µM
[27] = RPMI 5 mM glucose + 10% dialyzed FBS, 0.0632 µM
[28] = RPMI 5 mM glucose + 10% dialyzed FBS, 0.19 µM
[29] = RPMI 5 mM glucose + 10% dialyzed FBS, 0.569 µM
[30] = RPMI 5 mM glucose + 10% dialyzed FBS, 1.71 µM
[31] = RPMI 5 mM glucose + 10% dialyzed FBS, 5.12 µM
[32] = RPMI 5 mM glucose + 10% dialyzed FBS, 15.4 µM
[33] = RPMI 5 mM glucose + 10% dialyzed FBS, 46.1 µM

SMILES	cell viability [1] [%]	cell viability [2] [%]	cell viability [3] [%]	cell viability [4] [%]	cell viability [5] [%]	cell viability [6] [%]	cell viability [7] [%]	cell viability [8] [%]	cell viability [9] [%]	cell viability [10] [%]	cell viability [11] [%]	cell viability [12] [%]	cell viability [13] [%]	cell viability [14] [%]	cell viability [15] [%]	cell viability [16] [%]	cell viability [17] [%]	cell viability [18] [%]	cell viability [19] [%]	cell viability [20] [%]	cell viability [21] [%]	cell viability [22] [%]	cell viability [23] [%]	cell viability [24] [%]	cell viability [25] [%]	cell viability [26] [%]	cell viability [27] [%]	cell viability [28] [%]	cell viability [29] [%]	cell viability [30] [%]	cell viability [31] [%]	cell viability [32] [%]	cell viability [33] [%]
CCN(CC)CCCC(C)Nc1ccnc2cc(Cl)ccc12 (stereo not drawn)	112	100	124	115	120	103	104	69.7	74	31.6	31.5	103	112	99.2	102	117	108	110	92.8	99.7	21.1	18	124	120	118	134	120	121	120	111	107	26.9	26.5
CCn1c(C(=O)N(C2CC2)C2CC2)cc2c3c(ncn3C)c(Nc3cc(C)n(C)n3)nc21	90.4	113	106	114	122	115	113	105	108	119	88.5	86.7	100	93.9	118	117	103	114	102	102	111	84.4	84.1	104	105	94.7	116	111	115	112	110	116	98.6
CC[C@H](CO)Nc1nc(NCc2ccccc2)c2ncn(C(C)C)c2n1	98.6	95.1	98.5	99.4	89.8	88	89.4	82.9	85.7	96.4	54.2	82.5	93.9	93.9	83.7	84.3	88.3	87.4	79.5	84.2	77	76.6	96.7	96.3	85.2	90.9	94.1	86.2	95.2	90.1	94.2	77.3	70.3
NC(=O)c1nnn(Cc2cc(Cl)c(C(=O)c3ccc(Cl)cc3)c(Cl)c2)c1N	111	134	124	127	120	137	124	135	111	120	78.7	121	123	129	124	122	123	123	105	110	114	103											
COc1cccc(OC)c1-c1cc(C(=O)NC2(C(=O)O)C3CC4CC(C3)CC2C4)nn1-c1ccnc2cc(Cl)ccc12 (stereo not drawn)	129	111	125	135	119	123	102	118	116	111	98.9	102	99.6	97.9	109	99.7	100	104	97.3	104	107	90.8	104	116	108	109	113	104	101	95.2	108	91	105
c1cc2c(cc1[C@H]1OC[C@H]3[C@@H]1CO[C@@H]3c1ccc3c(c1)OCO3)OCO2	115	120	135	112	134	143	139	138	118	131	124	113	122	129	130	146	138	139	125	119	136	130	119	127	123	130	139	137	125	164	117	129	137
Cc1cnc(Nc2cccc(CN3CCOCC3)c2)nc1Nc1cccc([S+](=O)([O-])NC(C)(C)C)c1	87.9	99.6	100	96.4	107	108	104	97.8	61.5	100	84.1	79.8	85.1	85.4	94.8	83.8	78.1	80.4	75.2	35.1	86.3	85.5	84	96.7	86.2	90.7	88	98.6	93.6	85.1	43.5	90.7	87.3
O=C(Nc1ccccc1)Nc1ccc(-c2ccc(C(=O)[C@@H]3CCC[C@H]3C(=O)O)cc2)cc1	109	122	103	94.1	119	98.3	99	77	67.2	66.7	56.5	109	111	98.6	101	110	97.7	100	95.9	90.6	83.5	69.5	105	121	114	105	122	97.9	88.8	96	81.8	73.7	59.7
